Values quoted from earlier work as cited in patent publication US5118493A, “Composition having reduced nephrotoxocity comprising a fatty acid containing component and cyclosporine” (Brigham and Women's Hospital, priority 1991, dated 1992).

Tested on: rats treated with CSA

SMILES: Cc1c(Cn2ccnc2)c2ccccc2n1CCC(=O)O [UK-38,485]
- glomerular filtration rate (GFR): improved
- urinary TxB2 levels: comparable to control levels
